Reference: BindingDB's records for doi:10.1021/jm0310479 (Roche Diagnostics, 2004)
Where a name gives a salt, the structure may show the parent alone.

Assays:
[1] = molecular target: RAC-alpha serine/threonine-protein kinase (Homo sapiens, UniProt P31749); test: PKB In Vitro Kinase Assay; conditions: pH 7.5; 22 °C
Experimental: An ELISA-based assay has been developed for the serine/threonine kinase, PKB-alpha. The assay utilizes an N-terminally biotinylated substrate peptide. When this substrate is phosphorylated by the kinase, the product is recognized by a substrate/sequence-specific antibody, which binds to particular phosphorylated serine residues. […] Calculation of IC50 values was performed with ActivityBase.

[2] = molecular target: cAMP-dependent protein kinase catalytic subunit alpha (Bos taurus, UniProt P00517); test: Fluorescence Polarization-based Assay; conditions: pH 7.2; 22 °C
Experimental: In this assay, a fluorescent phosphopeptide tracer and the nonfluorescent phosphopeptides generated during a PKA reaction compete for binding to an antiphosphoserine antibody. In a reaction mixture containing phosphopeptide product, the fluorescent tracer is displaced from the antibody and the emission signal becomes depolarized. Enzymatic activity was measured by detection of fluorescence polarity in a Victor 2 reader (Wallac, Finland). […] Calculation of IC50 values was performed with ActivityBase.

Chain of RAC-alpha serine/threonine-protein kinase (P31749 whole entry): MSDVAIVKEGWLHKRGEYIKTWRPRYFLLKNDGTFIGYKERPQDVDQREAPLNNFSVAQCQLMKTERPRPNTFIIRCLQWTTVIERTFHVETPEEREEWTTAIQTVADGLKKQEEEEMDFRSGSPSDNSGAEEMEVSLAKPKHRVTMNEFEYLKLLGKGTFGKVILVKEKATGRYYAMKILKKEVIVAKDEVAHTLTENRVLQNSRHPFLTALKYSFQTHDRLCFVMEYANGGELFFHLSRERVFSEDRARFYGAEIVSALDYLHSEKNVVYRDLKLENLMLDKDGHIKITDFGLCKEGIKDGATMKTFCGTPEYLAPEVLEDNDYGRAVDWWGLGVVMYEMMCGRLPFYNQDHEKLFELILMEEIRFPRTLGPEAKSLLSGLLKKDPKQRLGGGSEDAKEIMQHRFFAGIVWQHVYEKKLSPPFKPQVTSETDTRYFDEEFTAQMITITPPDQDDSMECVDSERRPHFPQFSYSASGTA

IC50 [1] [µM] | IC50 [2] [µM] | Structure (SMILES)
0.355 | – | COc1ccc(O)c(C(=O)c2ccc(CO[C@@H]3CCCNC[C@H]3NC(=O)c3ccncc3)cc2)c1F [N-((3R,4R)-4-{[4-(2-fluoro-6-hydroxy-3-methoxybenzoyl)benzyl]oxy}azepan-3-yl)isonicotinamide dihydrochloride]
25 | 45 | COc1ccc(O)c(C(=O)c2ccc(NC[C@@H]3CCCNC[C@H]3NC(=O)c3ccncc3)cc2)c1F [N-[(3S,4S)-4-[({4-[(2-fluoro-6-hydroxy-3-methoxyphenyl)carbonyl]phenyl}amino)methyl]azepan-3-yl]pyridine-4-carboxamide trihydrochloride]
